The values that follow come from ChEMBL document CHEMBL2021886, “Identification of a series of 1,3,4-oxadiazol-2-amines as potent alpha-7 agonists with efficacy in the novel object recognition model of cognition” (Bioorg Med Chem Lett, 2012).

In series [1] the test system is Blood. Kind of series: Drug level in novel object recognition model of rat blood at 0.1 mg/kg, po. Format: ADME, organism-based. The arrangement: dose 0.1 mg/kg, route oral. As to conditions: in vivo, read-out: Drug uptake.
A short description of series [2]: Intrinsic permeability of the compound in MDCK cells expressing MDR1. Format: ADME, cell-based, Canis lupus familiaris. The settings on record: dog.
A short description of series [3]: Ratio of drug level in brain to blood in Lister Hooded rat at 3 mg/kg, po after 3 hrs. Format: ADME, organism-based. More on the design: dose 3 mg/kg, route oral.
In series [4] the test system is Liver. As to the kind of experiment: Clearance in human liver assessed per gram of tissue. Format: ADME, tissue-based.
Series [5] can be described thus: Half life in Sprague-Dawley rat at 1 mg/kg, iv. The settings on record: in vivo. In kind it is ADME, organism-based. The arrangement: dose 1 mg/kg, route intravenous.
Series [6] can be described thus: Drug uptake in Lister Hooded rat blood at 3 mg/kg, po after 3 hrs. Format: ADME, organism-based. More on the design: dose 3 mg/kg, route oral. The settings on record: read-out: Drug uptake.
The subject of series [7] is Liver. As to the kind of experiment: Clearance in rat liver assessed per gram of tissue. Format: ADME, tissue-based. The settings on record: in vivo.
Series [8] is described as follows: Blood clearance in Sprague-Dawley rat at 1 mg/kg, iv. Format: ADME, organism-based. The arrangement: dose 1 mg/kg, route intravenous.

Structures are written as SMILES.

In the case of `COc1cc(NC(=O)c2ccccc2F)ccc1-c1nnc(NCCCN2CCCCC2)o1`, the concentration in series [1] came out at 205 nM. Further, in series [2], the Papp was determined as 32.5 ×10⁻⁶ cm/s.

For the molecule `Cl.O=C(Nc1ccc(-c2nnc(NCCCN3CCCCC3)o2)cc1)c1ccccc1F`, the Kp at 3 h in series [3] turned out to be 1.7. Also, the CLH in series [4] is 0.5 mL/min/g; in series [7] it was below 0.2 mL/min/g. In series [5], this molecule had a half-life of 2.9 h. The concentration at 3 h in series [6] was 205 nM. The same molecule came in with a clearance in series [8] of 67 mL/min/kg.

Regarding `COc1cc(NC(=O)c2ccccc2F)ccc1-c1nnc(NCCCN2CCOCC2)o1.Cl`, the Kp at 3 h in series [3] came out at 0.12. The CLH in series [4] was 0.5 mL/min/g; in series [7], below 0.5 mL/min/g. The half-life in series [5] was 0.6 h. For the same molecule, the concentration at 3 h in series [6] stood at 294 nM. The molecule further had a clearance in series [8] of 41 mL/min/kg.

As to `COc1cc(NC(=O)c2ccccc2F)ccc1-c1nnc(NCCCN2CCCCC2)o1.Cl`, the Kp at 3 h in series [3] was 0.4. The CLH in series [4] is below 0.3 mL/min/g; in series [7], below 0.5 mL/min/g. The same molecule showed a half-life in series [5] of 3.2 h. Besides, in series [6], the concentration at 3 h is 270 nM. Also, the clearance in series [8] is 28 mL/min/kg.

One may read the Papp as a coefficient for how fast a substance crosses the barrier. The Kp is tissue or fluid exposure divided by exposure in the circulation. For orientation: half-life means the time in which the quantity being followed falls by half. As usually defined, the clearance is the volume of plasma or blood freed of the substance per unit of time. Low values mean inefficient removal, high ones efficient removal.
